The values below are quoted from earlier work in article PMC8875686, “Oral Formulation Based on Irbesartan Nanocrystals Improve Drug Solubility, Absorbability, and Efficacy” (Pharmaceutics, 2022).

The conditions of series [1]: oral administration.
For series [2] the following is noted: room temperature.

Values after ≈ are worked out from the molar mass of the structure shown.

As for `CCCCC1=NC2(CCCC2)C(=O)N1Cc1ccc(-c2ccccc2-c2nnn[nH]2)cc1` [IRB, Irbesartan], in series [1], the “average absolute bioavailability (BA)” value is listed as 60–80% and the “time of Cmax (peak plasma concentrations)” value was 1.5 to 2 h.

As usually defined, the solubility is how much of the substance goes into solution per volume. In the case of `CCCCC1=NC2(CCCC2)C(=O)N1Cc1ccc(-c2ccccc2-c2nnn[nH]2)cc1` [form A], the solubility entry in series [2] is given as “approximately 0.011 mg/mL”.

As for `CCCCC1=NC2(CCCC2)C(=O)N1Cc1ccc(-c2ccccc2-c2nnn[nH]2)cc1` [form B], the solubility in series [2] was around 0.6 µg/mL (≈ 1.4 µM).
